US9133191B2, “Substituted triazine derivatives and use thereof as stimulators of soluble guanylate cyclase” (Bayer Intellectual Property GmbH, priority 2012, dated 2015)

Legend:
aorta rings = assay: Vasorelaxant effect in vitro (phenylephrine-contracted rabbit aorta rings); set-up: species or system Rabbits; conditions: Oryctolagus cuniculus, phenylephrine contraction, concentration needed to reduce the control value by 50%
Protocol: B-1. Vasorelaxant Effect In Vitro
Rabbits are stunned by a blow to the neck and exsanguinated. The aorta is removed, freed from adhering tissue and divided into rings of a width of 1.5 mm. The rings are placed individually under an initial tension in 5 ml organ baths with Krebs-Henseleit solution which is at 37° C., is gassed with carbogen and has the following composition (in each case mM): sodium chloride: 119; potassium chloride: 4.8; calcium chloride dihydrate: 1; magnesium sulphate heptahydrate: 1.4; potassium dihydrogenphosphate: 1.2; sodium bicarbonate: 25; glucose: 10. The contractile force is determined with Statham UC2 cells, amplified and digitalized using A/D transducers (DAS-1802 HC, Keithley Instruments Munich), and recorded in parallel on linear recorders. To produce a contraction, phenylephrine is added to the bath cumulatively in increasing concentration. After several control cycles, the substance to be investigated is added in each further run in increasing dosage in each case, and the height of the contraction achieved is compared with the height of the contraction reached in the last preceding run. This is used to calculate the concentration needed to reduce the magnitude of the control value by 50% (IC50 value). The standard administration volume is 5 μl; the DMSO content in the bath solution corresponds to 0.1%.

[1] = test system: recombinant guanylate cyclase reporter cell line; assay: Effect on a recombinant guanylate cyclase reporter cell line; assay type: cell-based; conditions: read-out: MEC (minimum effective concentration)
Protocol: B-2. Effect on a Recombinant Guanylate Cyclase Reporter Cell Line
The cellular effect of the compounds according to the invention is determined using a recombinant guanylate cyclase reporter cell line, as described in F. Wunder et al., Anal. Biochem. 339, 104-112 (2005).

IC50 (aorta rings)	SMILES	minimal effective concentration [1]
0.027 µM	CC(C)c1nnc(-c2nn(Cc3ccccc3F)c3ncccc23)nc1N [Example 22, 3-[1-(2-Fluorobenzyl)-1H-pyrazolo[3,4-b]pyridin-3-yl]-6-isopropyl-1,2,4-triazine-5-amine]	0.1 µM
–	Cc1ncccc1-c1nnc(-c2nn(Cc3ccccc3F)c3ncccc23)nc1N [Example 2, 3-[1-(2-Fluorobenzyl)-1H-pyrazolo[3,4-b]pyridin-3-yl]-6-(2-methylpyridin-3-yl)-1,2,4-triazine-5-amine]	0.1 µM
–	Nc1nc(-c2nn(Cc3ccccc3F)c3ncccc23)nnc1-c1cncc(F)c1 [Example 1, 3-[1-(2-Fluorobenzyl)-1H-pyrazolo[3,4-b]pyridin-3-yl]-6-(5-fluoropyridin-3-yl)-1,2,4-triazine-5-amine]	0.1 µM
–	CCCc1nnc(-c2nn(Cc3ccccc3F)c3ncccc23)nc1O [Example 17, 3-[1-(2-Fluorobenzyl)-1H-pyrazolo[3,4-b]pyridin-3-yl]-6-propyl-1,2,4-triazin-5-ol]	1 µM
–	CCc1nnc(-c2nn(Cc3ccccc3F)c3ncccc23)nc1O [Example 19, 6-Ethyl-3-[1-(2-fluorobenzyl)-1H-pyrazolo[3,4-b]pyridin-3-yl]-1,2,4-triazin-5-ol]	1 µM
0.112 µM	COC(=O)Nc1nnc(-c2nn(Cc3ccccc3F)c3ncccc23)nc1N [Example 12, Methyl {5-amino-3-[1-(2-fluorobenzyl)-1H-pyrazolo[3,4-b]pyridin-3-yl]-1,2,4-triazin-6-yl}carbamate]	0.3 µM
0.025 µM	Nc1nc(-c2nn(Cc3ccccc3F)c3ncccc23)nnc1C1CCCC1 [Example 16, 6-Cyclopentyl-3-[1-(2-fluorobenzyl)-1H-pyrazolo[3,4-b]pyridin-3-yl]-1,2,4-triazine-5-amine]	0.03 µM
–	Nc1nc(-c2nn(Cc3ccccc3F)c3ncccc23)nnc1-c1ccncc1 [Example 5, 3-[1-(2-Fluorobenzyl)-1H-pyrazolo[3,4-b]pyridin-3-yl]-6-(pyridin-4-yl)-1,2,4-triazine-5-amine]	0.1 µM
0.916 µM	CC(C)c1nnc(-c2nn(Cc3ccccc3F)c3ncccc23)nc1O [Example 21, 3-[1-(2-Fluorobenzyl)-1H-pyrazolo[3,4-b]pyridin-3-yl]-6-isopropyl-1,2,4-triazin-5-ol]	0.3 µM
–	Cn1cc(-c2nnc(-c3nn(Cc4ccccc4F)c4ncccc34)nc2N)cn1 [Example 6, 3-[1-(2-Fluorobenzyl)-1H-pyrazolo[3,4-b]pyridin-3-yl]-6-(1-methyl-1H-pyrazol-4-yl)-1,2,4-triazine-5-amine]	0.1 µM
–	COc1ncccc1-c1nnc(-c2nn(Cc3ccccc3F)c3ncccc23)nc1N [Example 8, 3-[1-(2-Fluorobenzyl)-1H-pyrazolo[3,4-b]pyridin-3-yl]-6-(2-methoxypyridin-3-yl)-1,2,4-triazine-5-amine]	0.1 µM
–	Nc1nc(-c2nn(Cc3ccccc3F)c3ncccc23)nnc1-c1cccnc1 [Example 7, 3-[1-(2-Fluorobenzyl)-1H-pyrazolo[3,4-b]pyridin-3-yl]-6-(pyridin-3-yl)-1,2,4-triazine-5-amine]	0.1 µM
–	Cc1noc(C)c1-c1nnc(-c2nn(Cc3ccccc3F)c3ncccc23)nc1N [Example 3, 6-(3,5-Dimethyl-1,2-oxazol-4-yl)-3-[1-(2-fluorobenzyl)-1H-pyrazolo[3,4-b]pyridin-3-yl]-1,2,4-triazine-5-amine]	0.3 µM
1.09 µM	Oc1nc(-c2nn(Cc3ccccc3F)c3ncccc23)nnc1C1CCCC1 [Example 15, 6-Cyclopentyl-3-[1-(2-fluorobenzyl)-1H-pyrazolo[3,4-b]pyridin-3-yl]-1,2,4-triazin-5-ol]	1 µM
2.96 µM	CS(=O)(=O)Nc1nnc(-c2nn(Cc3ccccc3F)c3ncccc23)nc1N [Example 11, N-{5-Amino-3-[1-(2-fluorobenzyl)-1H-pyrazolo[3,4-b]pyridin-3-yl]-1,2,4-triazin-6-yl}methanesulphonamide]	1 µM
–	Nc1nnc(-c2nn(Cc3ccccc3F)c3ncccc23)nc1N [Example 10, 3-[1-(2-Fluorobenzyl)-1H-pyrazolo[3,4-b]pyridin-3-yl]-1,2,4-triazine-5,6-diamine]	0.1 µM
0.023 µM	CC(F)c1nnc(-c2nn(Cc3ccccc3F)c3ncccc23)nc1N (stereo not shown) [Example 23, 3-[1-(2-Fluorobenzyl)-1H-pyrazolo[3,4-b]pyridin-3-yl]-6-(1-fluoroethyl)-1,2,4-triazine-5-amine]	0.1 µM
2.63 µM	Oc1nc(-c2nn(Cc3ccccc3F)c3ncccc23)nnc1C(F)(F)F [Example 13, 3-[1-(2-Fluorobenzyl)-1H-pyrazolo[3,4-b]pyridin-3-yl]-6-(trifluoromethyl)-1,2,4-triazin-5-ol]	3 µM
0.052 µM	Nc1nc(-c2nn(Cc3ccccc3F)c3ncccc23)nnc1C(F)(F)F [Example 14, 3-[1-(2-Fluorobenzyl)-1H-pyrazolo[3,4-b]pyridin-3-yl]-6-(trifluoromethyl)-1,2,4-triazine-5-amine]	0.03 µM
–	Cc1cc(-c2nnc(-c3nn(Cc4ccccc4F)c4ncccc34)nc2N)ccn1 [Example 9, 3-[1-(2-Fluorobenzyl)-1H-pyrazolo[3,4-b]pyridin-3-yl]-6-(2-methylpyridin-4-yl)-1,2,4-triazine-5-amine]	0.1 µM
–	COc1ccc(-c2nnc(-c3nn(Cc4ccccc4F)c4ncccc34)nc2N)cn1 [Example 4, 3-[1-(2-Fluorobenzyl)-1H-pyrazolo[3,4-b]pyridin-3-yl]-6-(6-methoxypyridin-3-yl)-1,2,4-triazine-5-amine]	0.03 µM
0.03 µM	CCCc1nnc(-c2nn(Cc3ccccc3F)c3ncccc23)nc1N [Example 18, 3-[1-(2-Fluorobenzyl)-1H-pyrazolo[3,4-b]pyridin-3-yl]-6-propyl-1,2,4-triazine-5-amine]	0.1 µM
0.03 µM	CCc1nnc(-c2nn(Cc3ccccc3F)c3ncccc23)nc1N [Example 20, 6-Ethyl-3-[1-(2-fluorobenzyl)-1H-pyrazolo[3,4-b]pyridin-3-yl]-1,2,4-triazine-5-amine]	0.1 µM
